Peptide text beside a SMILES is read from it.
How the values were obtained:
[1] = test system: SjSte2 with SjSxa2 or other fungal proteases; test: Dose-response of SjSte2 fluorescent strains with cognate or noncognate proteases; assay type: cell-based, Schizosaccharomyces japonicus
Experimental: (§1) Glycerol stocked strains were streaked out on YPD plate and incubated for 2 days. Three colonies were picked, replated on YPD plate, incubated for 1 day, and then stored at 4 °C. For activation assays, a small scoop of yeast patch from the 3 colonies was resuspended in ~4 ml of YPD medium and incubated overnight. Overnight cells were seeded at an optical density at 600 nm (OD600) of 0.15 (as measured in 96-well plate at 200-μl volume) in SC/Glc medium after washing twice with sterile Mili-Q H2O. GPCR activity and response to increasing concentrations of synthetic peptide ligands were measured in strains carrying appropriate genome-integrated components in 96-well microtiter plates in 200-μl total volume and cultured at 30 °C and 800 rpm, unless otherwise stated. All measurements were performed in biological triplicate. Culture turbidity (OD600) and fluorescence for ymTurquoise2 (excitation, 439 nm; emission, 475 nm; gain, 75) were measured after 0 and 8 h using an Infinite 200 Pro plate reader (Tecan). Dose–response curve was measured at 11 different concentrations of the appropriate synthetic peptide ligand with a constant dilution factor and a no-peptide, H2O control. The absorbance at 600 nm normalized fluorescence values and log10-transformed peptide concentrations were fit to a 4-parameter nonlinear regression model using Prism (GraphPad) to extract GPCR-specific values for basal activation, maximal activation, EC50, and the Hill coefficient.
(§2) To validate the effect of peptide proteases on their complementary and noncomplementary peptides (Table S8), from the parent strain yTC370, we engineered 30 strains (Table S1).
(§3) Next, to validate whether we can control the extent of peptide cleavage by their cognate proteases by modulating the concentration of expressed protease, we constitutively expressed proteases under promoters of different expression levels. For the purpose of determining the protease’s specificity in previous section (S1), all proteases were expressed under pCCW12, which is one of the strongest characterized promoters in yeast. Here, we introduced 2 additional promoters to convey medium and low expression levels of the proteases. We selected pRPL18B for medium expression and pRAD27 for low expression level. We cloned these promoters upstream from protease ORFs in Golden Gate cassette plasmids, assembled the protease cassettes with their cognate GPCRs and fluorescent readout, and integrated into parent yTC370 strain (see Materials and Methods and Table S1). Then, we compared dose–response curves of strains responding to their cognate peptides without the protease or with protease at 3 different expression levels (low, medium, and high) (S2).

[2] = target: T1, SpSte2 with SpSxa2 or other fungal proteases (Schizosaccharomyces pombe, UniProt Q00619); test: Dose-response of SpSte2 fluorescent strains with cognate or noncognate proteases; assay type: cell-based
T1 construct: we cloned codon-optimized open reading frames (ORFs) of all 5 proteases and GPCRs; expressed in transfected cells; host or cells: S. cerevisiae strains from yTC370 (yTC530, yTC529, yTC531-534, yTC525, yTC526); two genome-integrated pTDH3-SpSTE2 copies
T1 sequence (Q00619 1-348): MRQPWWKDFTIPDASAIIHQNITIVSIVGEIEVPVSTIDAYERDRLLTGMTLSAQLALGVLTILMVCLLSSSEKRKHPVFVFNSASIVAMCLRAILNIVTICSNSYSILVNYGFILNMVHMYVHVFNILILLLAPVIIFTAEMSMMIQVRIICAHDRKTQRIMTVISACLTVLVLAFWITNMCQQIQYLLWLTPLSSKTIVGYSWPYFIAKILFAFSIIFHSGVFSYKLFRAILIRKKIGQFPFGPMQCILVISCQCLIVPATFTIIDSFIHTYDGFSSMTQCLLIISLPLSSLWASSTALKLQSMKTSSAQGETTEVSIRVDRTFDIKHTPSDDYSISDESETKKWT
Experimental: as §1, §2, §3

[3] = test system: SoSte2 with SoSxa2 or other fungal proteases; test: Dose-response of SoSte2 fluorescent strains with cognate or noncognate proteases; assay type: cell-based, Schizosaccharomyces octosporus
Sequence of SoSte2 with SoSxa2 or other fungal proteases (as listed by the source): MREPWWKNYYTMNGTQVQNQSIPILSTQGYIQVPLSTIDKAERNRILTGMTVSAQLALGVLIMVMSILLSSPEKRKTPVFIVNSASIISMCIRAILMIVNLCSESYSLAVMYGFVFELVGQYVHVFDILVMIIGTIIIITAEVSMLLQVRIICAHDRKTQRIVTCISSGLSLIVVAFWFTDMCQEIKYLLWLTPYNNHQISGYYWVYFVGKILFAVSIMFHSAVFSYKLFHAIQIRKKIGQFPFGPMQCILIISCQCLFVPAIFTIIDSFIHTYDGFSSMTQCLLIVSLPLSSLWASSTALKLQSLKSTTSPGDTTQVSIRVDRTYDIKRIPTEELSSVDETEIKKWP
Experimental: as §1, with “coefficient. […]” for “coefficient.”
Next, to validate whether we can control the extent of peptide cleavage by their cognate proteases by modulating the concentration of expressed protease, we constitutively expressed proteases under promoters of different expression levels. […] We cloned these promoters upstream from protease ORFs in Golden Gate cassette plasmids, assembled the protease cassettes with their cognate GPCRs and fluorescent readout, and integrated into parent yTC370 strain (see Materials and Methods and Table S1). […]

[4] = noncomplementary proteases, pCCW12, fluorescent readout

Sequence of SjSte2 with SjSxa2 or other fungal proteases (as listed by the source): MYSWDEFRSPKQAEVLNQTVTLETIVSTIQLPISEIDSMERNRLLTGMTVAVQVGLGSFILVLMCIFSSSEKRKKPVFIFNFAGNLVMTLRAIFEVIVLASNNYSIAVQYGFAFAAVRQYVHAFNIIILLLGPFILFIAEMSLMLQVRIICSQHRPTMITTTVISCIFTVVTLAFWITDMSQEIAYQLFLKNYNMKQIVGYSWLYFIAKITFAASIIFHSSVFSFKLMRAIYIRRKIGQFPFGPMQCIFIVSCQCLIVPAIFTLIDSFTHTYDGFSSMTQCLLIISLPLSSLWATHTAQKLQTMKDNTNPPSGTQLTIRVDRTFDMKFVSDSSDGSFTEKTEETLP

VSDRVKQMLSHWWNFRNPDTANL [SjPep, S. japonicus pheromone peptide, synthetic]
apparent EC50 shift with complementary protease SjSxa2 ([1]; SjSxa2 under pCCW12 (high expression), fluorescent readout, 8 h): over one order of magnitude | EC50 shift with low SjSxa2 expression ([1]; SjSxa2 under pRAD27 (low expression)): did not affect EC50 | apparent EC50 shift with medium and high SjSxa2 expression ([1]; SjSxa2 under pRPL18B and pCCW12, out of measurable range (>100 μM)): more than 2 orders of magnitude | EC50 ([1]; out of the measurable peptide concentration range, pCCW12, fluorescent readout, read-out: apparent EC50 with complementary protease SjSxa2): > 100 µM

CC(C)C[C@H](NC(=O)[C@H](CC(N)=O)NC(=O)[C@@H]1CCCN1C(=O)[C@H](CCCNC(=N)N)NC(=O)[C@H](CC(=O)O)NC(=O)[C@@H]1CCCN1C(=O)[C@H](CC(N)=O)NC(=O)[C@@H](NC(=O)[C@H](Cc1ccccc1)NC(=O)[C@@H](NC(=O)[C@H](CC(N)=O)NC(=O)[C@H](Cc1c[nH]c2ccccc12)NC(=O)[C@H](CO)NC(=O)[C@H](CCC(N)=O)NC(=O)[C@H](Cc1ccc(O)cc1)NC(=O)[C@H](C)NC(=O)[C@H](CCCNC(=N)N)NC(=O)[C@H](CC(C)C)NC(=O)[C@H](Cc1ccccc1)NC(=O)[C@H](CC(=O)O)NC(=O)[C@H](C)NC(=O)[C@H](Cc1ccc(O)cc1)NC(=O)[C@@H](N)[C@@H](C)O)[C@@H](C)O)C(C)C)C(=O)O [SpPep] (H-TYADFLRAYQSWNTFVNPDRPNL-OH; N-terminus and C-terminus assumed)
effect of cognate protease SpSxa2 on response ([2]; SpSxa2 under pCCW12 (high expression), fluorescent readout, 8 h): practically completely attenuated the response | EC50 shift with low SpSxa2 expression ([2]; SpSxa2 under pRAD27 (low expression), fluorescent readout, 8 h): did not show notable apparent EC50 shift | EC50 shift with medium SpSxa2 expression ([2]; SpSxa2 under pRPL18B (medium expression), fluorescent readout, 8 h): ~2 orders of magnitude | cleavage by ScBar1 and CaBar1 [2, 4]: did not cleave | apparent EC50 with complementary protease SpSxa2 ([2]; out of the measurable peptide concentration range, pCCW12, fluorescent readout): > 100 µM | apparent EC50 shift with noncomplementary proteases SjSxa2 and SoSxa2 ([2]; pCCW12, fluorescent readout): between half and one order of magnitude

TYEDFLRVYKNWWSFQNPDRPDL [SoPep, S. octosporus pheromone peptide, synthetic]
EC50 shift with low and medium SoSxa2 expression ([3]; SoSxa2 under pRAD27 or pRPL18B, compared to strain with no protease): did not notably shift the apparent EC50 | cleavage by ScBar1 and CaBar1 [3, 4]: did not cleave | apparent EC50 shift with noncomplementary proteases SjSxa2 and SpSxa2 ([3]; pCCW12, fluorescent readout): between half and one order of magnitude

Reference: article PMC10084949, “Peptide Variant Detection by a Living Yeast Biosensor via an Epitope-Selective Protease” (Biodesign Research, 2023)
